# Experiments:
# Pseudomonas = conditions: background statement; cited from earlier work
# Proteus vulgaris = experiment: Median MIC, clinical isolates, agar-plate dilution (Table 1); assay type: cell-based; conditions: 7 clinical isolates, sodium salt, read-out: Median minimum inhibitory concentration
# Experimental: (§1) Note: Compound (I) and Compound (A) were subjected to the test in the form of the sodium salt. The minimum inhibitory concentration (MIC) was determined using the agar-plate dilution method recommended by Japan Society of Chemotherapy.
# Escherichia = experiment: as above; assay type: cell-based; conditions: read-out: Median minimum inhibitory concentration
# Experimental: as §1
# Staphylococcus aureus [1] = experiment: as above; assay type: cell-based; conditions: 37 clinical isolates, sodium salt, read-out: Median minimum inhibitory concentration
# Experimental: as §1
# Proteus morganii = experiment: as above; assay type: cell-based; conditions: Morganella morganii, 14 clinical isolates, sodium salt, read-out: Median minimum inhibitory concentration
# Experimental: as §1
# Klebsiella pneumoniae [2] = experiment: as above; assay type: cell-based; conditions: 26 clinical isolates, sodium salt, read-out: Median minimum inhibitory concentration
# Experimental: as §1
# Pseudomonas aeruginosa [3] = experiment: as above; assay type: cell-based; conditions: 49 clinical isolates, sodium salt, read-out: Median minimum inhibitory concentration
# Experimental: as §1
# Serratia = experiment: as above; assay type: cell-based; conditions: 6 clinical isolates, sodium salt, read-out: Median minimum inhibitory concentration
# Experimental: as §1
# Enterobacter aerogenes = experiment: as above; assay type: cell-based; conditions: Klebsiella aerogenes, 8 clinical isolates, sodium salt, read-out: Median minimum inhibitory concentration
# Experimental: as §1
# Klebsiella pneumoniae [4] = experiment: MIC, nutrient broth dilution (Table 2); assay type: cell-based; conditions: Klebsiella pneumoniae strain No. 6, sodium salt
# Experimental: (§2) Note: Compound (I), Compound (A) and Compound (B) were subjected to the test in the form of the sodium salt. For each test, eight male ICR-SLC strain mice were used at each dose level. MIC was determined by the nutrient broth dilution method. In determination of PD50, subcutaneous treatment was carried out twice, i.e. 1 and 4 hours after infection.
# Pseudomonas aeruginosa [5] = experiment: MIC, nutrient broth dilution (Table 2); assay type: cell-based
# Experimental: as §2
# Escherichia coli [6] = experiment: MIC, nutrient broth dilution (Table 2); assay type: cell-based; conditions: Escherichia coli strain NIHJ, sodium salt
# Experimental: as §2
# Klebsiella pneumoniae [7] = experiment: Intraperitoneal infection in mice, median protective dose (Table 2); assay type: in vivo; conditions: sc, subcutaneous, 1 and 4 hours after infection, sodium salt, read-out: PD50
# Experimental: as §2
# Pseudomonas aeruginosa [8] = experiment: as above; assay type: in vivo; conditions: sc, subcutaneous, 1 and 4 hours after infection, sodium salt, read-out: PD50
# Experimental: as §2
# Escherichia coli [9] = experiment: as above; assay type: in vivo; conditions: sc, E. coli strain NIHJ, male ICR-SLC mice, subcutaneous, 1 and 4 hours after infection, sodium salt, read-out: PD50
# Experimental: as §2
# [10] = Protein-binding rate in human serum (Table 6); assay type: in vitro ADME; conditions: human, serum, sodium salt
# Text: The following data are related to the pharmacokinetic profiles of Compound (I) compared with Compound (C).
# (§3) Note: Compound (I) and Compound (C) were subjected to the test in the form of the sodium salt.
# [11] = Serum level in mice after subcutaneous administration (Table 7); assay type: in vivo, ICR-SLC strain mice; conditions: mouse, sc, subcutaneous 50 mg/kg, sodium salt
# Experimental: The peak serum concentrations of Compound (I) and Compound (C) in ICR strain mice following subcutaneous administration at 50 mg/kg are shown in Table 7.
# Note: Compound (I) and Compound (C) were subjected to the test in the form of the sodium salt. For the test, three male ICR-SLC strain mice were used. The bioassay was carried out according to the disc method using Bacillus subtilis.
# Staphylococcus aureus [12] = experiment: Intraperitoneal infection in mice, median protective dose (Table 5); assay type: in vivo; conditions: sc, S. aureus strain A24, male ICR-SLC mice, subcutaneous, 1, 3 and 5 hours after infection, sodium salt, read-out: PD50
# Experimental: (§4) The relative activities of Compound (I) and Compound (C) against various intraperitioneal infections in mice evaluated by the minimum inhibitory concentrations and the means median protective doses (subcutaneously administered) are shown in Table 5.
# (§5) Note: Compound (I) and Compound (C) were subjected to the test in the form of the sodium salt. For each test, five male ICR-SLC strain mice were used at each dose level. MIC was determined by the nutrient broth dilution method. In determination of PD50, subsutaneous treatment was carried out three times, i.e. 1, 3 and 5 hours after infection.
# Streptococcus faecalis [13] = experiment: as above; assay type: in vivo; conditions: Enterococcus faecalis, sc; S. faecalis strain F10; male ICR-SLC mice; subcutaneous, 1, 3 and 5 hours after infection; sodium salt; read-out: PD50
# Experimental: as §4, §5
# Klebsiella pneumoniae [14] = experiment: as above; assay type: in vivo; conditions: sc, K. pneumoniae strain No. 1, male ICR-SLC mice, subcutaneous, 1, 3 and 5 hours after infection, sodium salt, read-out: PD50
# Experimental: as §4, §5
# Pseudomonas aeruginosa [15] = experiment: as above; assay type: in vivo; conditions: sc, P. aeruginosa strain TS, male ICR-SLC mice, subcutaneous, 1, 3 and 5 hours after infection, sodium salt, read-out: PD50
# Experimental: as §4, §5
# Proteus mirabilis = experiment: MIC (Table 3); assay type: cell-based; conditions: Proteus mirabilis strain GN2425; sodium salt
# Text: The minimum inhibitory concentrations obtained with Compound (I) and Compound (C) against the following organisms representing 6 genera are shown in Table 3.
# as §3
# Staphylococcus aureus [16] = experiment: Median MIC, clinical isolates, agar-plate dilution (Table 4); assay type: cell-based; conditions: 37 strains, agar-plate dilution, sodium salt, read-out: Median minimum inhibitory concentration
# Experimental: (§6) Note: Compound (I) and Compound (C) were subjected to the test in the form of the sodium salt. MIC was determined using the agar-plate dilution method.
# Streptococcus faecalis [17] = experiment: as above; assay type: cell-based; conditions: Enterococcus faecalis, 23 strains, agar-plate dilution, sodium salt, read-out: Median minimum inhibitory concentration
# Experimental: as §6
# Streptococcus faecalis [18] = experiment: MIC, nutrient broth dilution (Table 5); assay type: cell-based; conditions: Enterococcus faecalis, Streptococcus faecalis strain F10, sodium salt
# Experimental: as §4, §5
# Pseudomonas aeruginosa [19] = experiment: MIC, nutrient broth dilution (Table 5); assay type: cell-based; conditions: Pseudomonas aeruginosa strain TS, sodium salt
# Experimental: as §4, §5
# [20] = Acute toxicity in mice, intraperitoneal (Table 9); conditions: mouse, in vivo, ip
# Text: The acute toxicity of Compound (I) and Compound (C) in ICR strain mice when administered by intraperitoneal route are shown in Table 9.
# as §3
# [21] = Urinary excretion rate in rats after intramuscular administration (Table 8); assay type: in vivo, Wistar-HLA strain rats; conditions: rat, urine, im, 20 mg/kg, male rats, intramuscular 20 mg/kg, sodium salt
# Experimental: The urinary excretion rates of Compound (I) and Compound (C) following an intramuscular administration of 20 mg/kg in male Wistar-HLA strain rats are shown in Table 8.
# as §3
structure (smiles),measurement,setting,value
CC1(C)S[C@@H]2[C@H](NC(=O)C(c3ccccc3)S(=O)(=O)O)C(=O)N2[C@H]1C(=O)O (stereo partly shown) [Sulfocillin],anti-Pseudomonas activity,Pseudomonas,not sufficiently strong
"CC1(C)S[C@@H]2[C@H](NC(=O)[C@H](NC(=O)c3cnccc3O)c3ccc(O)cc3)C(=O)N2[C@H]1C(=O)O [Compound (A), 6-[D-2-(4-hydroxypyridine-3-carbonamido)-2-(p-hydroxyphenyl)acetamido]penicillanic acid, reference compound]",MIC50,Proteus vulgaris,115 µg/mL
same,MIC50,Escherichia,14 µg/mL
same,MIC50,Staphylococcus aureus [1],21 µg/mL
same,MIC50,Proteus morganii,50 µg/mL
same,MIC50,Klebsiella pneumoniae [2],73 µg/mL
same,MIC50,Pseudomonas aeruginosa [3],5 µg/mL
same,MIC50,Serratia,> 200 µg/mL
same,MIC50,Enterobacter aerogenes,100 µg/mL
same,MIC,Klebsiella pneumoniae [4],100 µg/mL
same,MIC,"Pseudomonas aeruginosa [5]; Pseudomonas aeruginosa strain NC-5, sodium salt",6.25 µg/mL
same,MIC,"Pseudomonas aeruginosa [5]; Pseudomonas aeruginosa strain T, sodium salt",12.5 µg/mL
same,MIC,Escherichia coli [6],12.5 µg/mL
same,ED50,"Klebsiella pneumoniae [7]; K. pneumoniae strain No. 1, male ICR-SLC mice",100 mg/kg
same,ED50,"Klebsiella pneumoniae [7]; K. pneumoniae strain No. 6, male ICR-SLC mice",120 mg/kg
same,ED50,"Klebsiella pneumoniae [7]; K. pneumoniae strain No. 20, male ICR-SLC mice",> 150 mg/kg
same,ED50,"Pseudomonas aeruginosa [8]; P. aeruginosa strain NC-5, male ICR-SLC mice",60 mg/kg
same,ED50,"Pseudomonas aeruginosa [8]; P. aeruginosa strain T, male ICR-SLC mice",51 mg/kg
same,ED50,Escherichia coli [9],3 mg/kg
CC1(C)S[C@@H]2[C@H](NC(=O)[C@H](N)c3ccccc3)C(=O)N2[C@H]1C(=O)O [Ampicillin],anti-Pseudomonas activity,Pseudomonas,does not exert any appreciable anti-Pseudomonas activity
CC1(C)S[C@@H]2[C@H](NC(=O)C(C(=O)O)c3ccccc3)C(=O)N2[C@H]1C(=O)O (stereo partly shown) [Carbenicillin],anti-Pseudomonas activity,Pseudomonas,not sufficiently strong
"CC1(C)S[C@@H]2[C@H](NC(=O)[C@H](NC(=O)c3cnc4cccnc4c3O)c3ccc(O)cc3)C(=O)N2[C@H]1C(=O)O [Compound (C), 6-[D-2-(4-hydroxy-1,5-naphthyridine-3-carbonamido)-2-(p-hydroxyphenyl)acetamido]penicillanic acid, reference compound]",fraction unbound,[10]; Ultracentrifugation method,0.08
same,fraction unbound,[10]; Ultrafiltration method,0.1
same,concentration at 0.5 h,[11]; 1/2 hr.,32000 ng/mL
same,concentration at 0.25 h,[11]; 1/4 hr.,44000 ng/mL
same,concentration at 1 h,[11]; 1 hr.,8000 ng/mL
same,concentration at 2 h,[11]; 2 hr.,5000 ng/mL
same,ED50,Staphylococcus aureus [12],32 mg/kg
same,ED50,Streptococcus faecalis [13],6 mg/kg
same,ED50,Klebsiella pneumoniae [14],18 mg/kg
same,ED50,Pseudomonas aeruginosa [15],15 mg/kg
same,MIC,Proteus mirabilis,1.56 µg/mL
same,MIC50,Staphylococcus aureus [16],60 µg/mL
same,MIC50,Streptococcus faecalis [17],3.8 µg/mL
same,MIC,Streptococcus faecalis [18],1.56 µg/mL
same,MIC,Pseudomonas aeruginosa [19],3.13 µg/mL
same,LD50,[20],3100 mg/kg
same,dose excreted at 6 h,[21]; 0-6 hr.,19.5%
same,dose excreted at 24 h,[21]; 0-24 hr.,20%
same,dose excreted at 24 h,[21]; 6-24 hr.,0.5%
